Results as given in article PMC8751734 (Cell Chemical Biology, 2022).

How the values were obtained:
PL^pro = conditions: ref Shin et al., 2020 (GRL-0617); Klemm et al., 2020 (rac5c); cited from earlier work
SARS-CoV-2 [1] = experiment: Activity of ACF components against SARS-CoV-2 in vitro; format: cell-based
[2] = Pharmacokinetics study of ACF in CD-1 mice; format: in vivo
SARS-CoV-2 [3] = format: cell-based
SARS-CoV-2 [4] = conditions: mouse, in vivo
SARS-CoV-2 [5] = format: cell-based; remark: listed apart in the source
SARS-CoV-2 [6] = format: cell-based; remark: listed apart in the source

Cc1ccc(N)cc1C(=O)N[C@H](C)c1cccc2ccccc12 [GRL-0617]
reported activity (PL^pro): active at the micromolar range

COc1cc(CNC(=O)C2CCN(C(C)c3cccc4ccccc34)CC2)ccn1 (racemic) [rac5c]
reported activity (PL^pro): active at the micromolar range

Nc1ccc2cc3ccc(N)cc3nc2c1 [PF, 3,6-diaminoacridine]
activity against SARS-CoV-2 in vitro (SARS-CoV-2 [1]): active
levels / exposure in lungs ([2]; IV 15 mg/kg and PO 100 mg/kg of commercial ACF): very high
oral bioavailability ([2]; components of commercial ACF): much higher bioavailability

CCC(CC)COC(=O)[C@H](C)N[P@](=O)(OC[C@H]1O[C@@](C#N)(c2ccc3c(N)ncnn23)[C@H](O)[C@@H]1O)Oc1ccccc1 [remdesivir]
elimination of SARS-CoV-2 (confocal microscopy) (SARS-CoV-2 [3]): nearly complete elimination
adverse effects in mice (SARS-CoV-2 [4]): No adverse effects were observed
decrease of viral loads in the brain (SARS-CoV-2 [4]): 2–3 orders of magnitude
inhibition of SARS-CoV-2 replication (confocal microscopy) (SARS-CoV-2 [5]): inferior compared with 500 nM ACF
virus yields in HAE cultures compared with PBS/untreated control (SARS-CoV-2 [6]): significantly inhibited virus yields
